Laboratory results taken from patent US7531195B2, “Schisandrin B preparation” (priority 2005, dated 2009).

Key:
[1] = system: H9c2 cells; experiment: Xanthine/xanthine oxidase-induced cytotoxicity (LDH leakage) in H9c2 cells; format: cell-based, rat; conditions: X/XO challenge, 6.25 μM
Experimental: (§1) H9c2 cells, a permanent cell line derived from cardiac myoblasts of rat embryo, have early been characterized as a suitable model of myocardial cells [Hescheler et al. 1991]. H9c2 cells were cultured as monolayers in Dulbecco's modified Eagle's medium (GIBCO BRL) supplemented with 10% (v/v) fetal bovine serum. The medium contained glucose (4.5 g/L) and glutamine (4.5 mM), supplemented with NaHCO3 (17 mM), penicillin (100 IU/ml), and streptomycin (100 μg/ml). Cells were grown under an atmosphere of 5% CO2 in air at 37° C. The medium was replaced by fresh medium every 2 or 3 days. A stock of cells was grown in a 75 cm culture flask and split before confluence at a subcultivation ratio of 1:10. Cells used for experiments were seeded at a density of 3.75×10^4 cells/well on a 12-well culture plate, and the cells were grown for 24 h to about 80% confluence prior to drug treatment.
(§2) Cultured H9c2 cells were treated with (−) Schisandrin B, (+) Schisandrin B or (±) Schisandrin B (dissolved in DMSO) at 6.25 μM (0.2% DMSO final concentration) for increasing periods of time. Control cells were given the vehicle (i.e. DMSO) only. Immediately following the drug or vehicle pretreatment, the cells were challenged with a mixture of xanthine (X) (0.1 mM) and xanthine oxidase (XO) (0.4 U/ml) for 4 h. The control cells were treated with the medium only. After the X/XO challenge, the medium was taken for the measurement of LDH activity, a biochemical index of cellular injury.

[2] = system: H9c2 cells; experiment: Cytotoxicity test in H9c2 cells (trypan blue, LDH leakage, WST); format: cell-based; conditions: 100 μM; 24 h
Experimental: as §1
Cultured H9c2 cells were treated with (−) Schisandrin B or (+) Schisandrin B (dissolved in DMSO) at 6.25 μM (0.2% DMSO final concentration) at increasing concentrations or at increasing concentrations for 24 h. Control cells were given the vehicle (i.e. DMSO) only.
Cell viability was evaluated by trypan blue staining (dead cells) and LDH leakage as well as WST staining (viable cells).

[3] = system: H9c2 cells; experiment: Cellular GSH level in H9c2 cells, time course, with or without xanthine/xanthine oxidase (X/XO) challenge; format: cell-based, rat; conditions: 6.25 μM
Experimental: as §1, §2
(§3) The cells were washed twice with 0.5 ml cold phosphate-buffered saline (PBS), An aliquot (200 μl) of 3% sulfonsalicyclic acid was then added, and the mixture was incubate at 4° C. for 10 min. After centrifuging at 300 g for 15 min at 4° C., the supernatant was used for GSH measurement by an enzymatic method of Griffith (1980).

[4] = system: H9c2 cells; experiment: Menadione-induced toxicity (LDH) in H9c2 cells; format: cell-based, rat
Experimental: as §1
(§4) Cultured H9c2 cells were treated with (−) Schisandrin B, (+) Schisandrin B or (±) Schisandrin B (dissolved in DMSO) at 6.25 μM (0.2% DMSO final concentration) for 16 h. Control cells were given the vehicle (i.e. DMSO) only. Immediately following the drug or vehicle pretreatment, the cells were challenged with menadione (dissolved in ethanol) at 12.5 μM (0.2% ethanol final concentration) for 4 h. The control cells were treated with the medium containing 0.2% ethanol only. After the menadione challenge, the medium was taken for the measurement of LDH activity, an biochemical index of cell injury.

[5] = system: Hsp25; experiment: Hsp25 expression in H9c2 cells (Western blot); format: cell-based, rat; conditions: 6.25 μM
Experimental: as §1
(§5) Cultured H9c2 cells were treated with (−) Schisandrin B, (+) Schisandrin B or (±) Schisandrin B (dissolved in DMSO) at 6.25 μM (0.2% DMSO final concentration) for increasing periods of time. Control cells were given the vehicle (i.e. DMSO) only.
(§6) Immediately following the drug treatment, the cells were washed twice with 0.5 ml cold PBS and treated with 100 μl lysis buffer containing 20 mM Tris HCl, 3 mM EGTA, 1% Triton X-100, 10% glycerol and 2 mM dithiothreitol, pH 7.5, with freshly added protease inhibitors (1 mM phenylmethylsulfonyl fluoride, 0.1 mM benzamide, 5 μg/ml leupeptin, 5 μg aproptinin and 5 μg/ml pepstain A). The mixture was incubated at 4° C. for 15 min with constant shaking. Then the cells were scraped off from the plate, and the extract was transferred to a microcentrifuge tube for centrifugation at 2,400 g for 3 min at 4° C. The resultant supernatant was used for Hsp analysis. Hsp25 and Hsp70 levels was estimated by Western blot analysis using specific antibodies (anti-Hsp25, catalog #SPA-801; anti-Hsp70, catalog #SPA-812) from StressGen (Vancouver, BC, Canada) following SDS-PAGE analysis cell lysates, using a separating gel of 10% acrylamide as described in Ip et. al. [2001]. Hsp25/27 and Hsp70 (human recombinant proteins from StressGen) and actin (bovine muscle from Sigma) were used as markers for reference. […] All immuno-blots were analyzed by densitometry, and the amounts (arbitrary units) of Hsp were normalized with reference to actin levels (arbitrary units) in the sample.

[6] = system: H9c2 cells; experiment: Cellular GSH level in H9c2 cells with or without menadione challenge; format: cell-based, rat
Experimental: as §1, §4, §3

[7] = system: Hsp70; experiment: Hsp70 expression in H9c2 cells (Western blot); format: cell-based, rat; conditions: 6.25 μM
Experimental: as §1, §5, §6

[8] = 0 h post-dosing (unpretreated control)
[9] = X/XO challenge, 16 h post-dosing
[10] = MENADIONE 12.5 μM for 4 h, drug 6.25 μM for 16 h
[11] = NON-MENADIONE, 6.25 μM for 16 h

SMILES: COc1cc2c(c(OC)c1OC)-c1c(cc3c(c1OC)OCO3)CC(C)C(C)C2 (single isomer, unassigned; (+)) [(+) Sch B, (+) Schisandrin B]
- LDH Leakage [1, 8]: 35.7 ± 0.24 U/L
- LDH Leakage ([1]; 4 h post-dosing): 31.3 ± 0.71 U/L
- LDH Leakage ([1]; 8 h post-dosing): 25.2 ± 0.45 U/L
- LDH Leakage ([1]; 16 h post-dosing): 19.4 ± 0.29 U/L
- LDH Leakage, percent protection vs unpretreated control (0 h) ([1]; 16 h post-dosing): (62%)
- LDH Leakage ([1]; 24 h post-dosing): 22.4 ± 1.07 U/L
- LDH Leakage ([1]; 48 h post-dosing): 33.5 ± 0.17 U/L
- percentage of cell death [2]: 11%
- GSH Level ([3]; NON-X/XO, 0 h post-dosing (unpretreated control)): 34.2 ± 2.41 nmol/mg protein
- GSH Level ([3]; NON-X/XO, 4 h post-dosing): 38.3 ± 1.48 nmol/mg protein
- GSH Level ([3]; NON-X/XO, 8 h post-dosing): 46.3 ± 0.85 nmol/mg protein
- GSH Level ([3]; NON-X/XO, 16 h post-dosing): 73.9 ± 1.38 nmol/mg protein
- GSH Level, percent increase vs unpretreated control (0 h) ([3]; NON-X/XO, 16 h post-dosing): (117%)
- GSH Level ([3]; NON-X/XO, 24 h post-dosing): 66.7 ± 1.83 nmol/mg protein
- GSH Level ([3]; NON-X/XO, 48 h post-dosing): 59.0 ± 2.94 nmol/mg protein
- GSH Level ([3]; X/XO challenge, 0 h post-dosing (unpretreated control)): 13.9 ± 1.68 nmol/mg protein
- GSH Level ([3]; X/XO challenge, 4 h post-dosing): 15.4 ± 0.55 nmol/mg protein
- GSH Level ([3]; X/XO challenge, 8 h post-dosing): 16.8 ± 0.85 nmol/mg protein
- GSH Level [3, 9]: 18.4 ± 0.33 nmol/mg protein
- GSH Level, percent increase vs unpretreated control (0 h) [3, 9]: (32%)
- GSH Level ([3]; X/XO challenge, 24 h post-dosing): 17.2 ± 0.36 nmol/mg protein
- GSH Level ([3]; X/XO challenge, 48 h post-dosing): 14.1 ± 0.53 nmol/mg protein
- LDH [4, 10]: 24.7 ± 0.56 U/ml
- LDH, percent protection vs menadione control [4, 10]: (30%)
- LDH [4, 11]: 13.5 ± 0.08 U/ml
- Hsp 25 Level [5, 8]: 1722 ± 99 AU
- Hsp 25 Level ([5]; 8 h post-dosing): 1832 ± 105 AU
- Hsp 25 Level ([5]; 16 h post-dosing): 1498 ± 86 AU
- Hsp 25 Level ([5]; 24 h post-dosing): 2168 ± 125 AU
- Hsp 25 Level, percent increase vs unpretreated control (0 h) ([5]; 24 h post-dosing): (26%)
- Hsp 25 Level ([5]; 48 h post-dosing): 1673 ± 97 AU
- GSH Level [6, 10]: 24.5 ± 2.03 nmol/mg protein
- GSH Level, percent increase vs menadione control [6, 10]: (55%)
- GSH Level [6, 11]: 48.4 ± 0.60 nmol/mg protein
- GSH Level, percent increase vs non-menadione control [6, 11]: (41%)
- Hsp 70 Level [7, 8]: 465 ± 14.3 AU
- Hsp 70 Level ([7]; 8 h post-dosing): 576 ± 20.3 AU
- Hsp 70 Level ([7]; 16 h post-dosing): 657 ± 13.4 AU
- Hsp 70 Level ([7]; 24 h post-dosing): 834 ± 48.1 AU
- Hsp 70 Level, percent increase vs unpretreated control (0 h) ([7]; 24 h post-dosing): (79%)
- Hsp 70 Level ([7]; 48 h post-dosing): 656 ± 37.8 AU
